Experiments:
[1] = system: OLAC Wister male rats; assay: Carrageenin test (rat paw oedema); assay type: in vivo; conditions: for Paw volume ± s.e. / % Inhi-bition: paw volume 3 hours after carrageenin; for Paw volume ± s.e.: control 85.8 ± 9.4
Procedure: 1. Activity in the Carrageenin Test
(§1) Groups of 8 OLAC Wister male rats (140 - 170 g) received the compound of Example 1 orally 1 hour before 0.1 ml of 0.5% λ carrageenin injected into the right hind paw. Paw volumes were measured by mercury displacement 3 hours after carrageenin.

[2] = Therapeutic ratio from the carrageenin test and the gastric irritancy test; assay type: in vivo, rats; conditions: from the two tests (gastric irritancy ED50 / carrageenin ED25)
Procedure: as §1
(§2) Groups of OLAC Wistar female rats (130 - 160 g) were fasted overnight (18 hours) before receiving orally the compound of Example 1. 4 Hours later the stomachs were removed and inspected for the presence of erosion of the gastric mucosa.
From these two tests the therapeutic ratio for the compound of formula (EI) was 41.0.

[3] = Gastric irritancy test; assay type: in vivo, rats; conditions: rat, in vivo, po
Procedure: (§3) 2. Gastric Irritancy Test
as §2

[4] = system: OLAC Wistar female rats; assay: Gastric irritancy test; assay type: in vivo; conditions: fasted rats, stomachs inspected 4 hours later
Procedure: as §3, §2

With `CC(=O)CC1CCn2c(C(=O)c3ccccc3)ccc21` (centres unmarked) [Example 1, 1-(5-Benzoyl-2-3-dihydro-1H-pyrrolazin-1-yl)-propan-2-one] the ED25 ([1]; Rattus norvegicus, oral, carrageenin paw volume, rats) was 0.75 mg/kg, the “Paw volume ± s.e.” value ([1]; oral dose 0.1 mg/kg 1 hour before carrageenin) was 92.6 ± 4.6 and the “% Inhi-bition” value ([1]; oral dose 0.1 mg/kg) was -8.0%. For the same compound, the “Paw volume ± s.e.” value ([1]; oral dose 0.5 mg/kg 1 hour before carrageenin) was 73.4 ± 7.8, the “% Inhi-bition” value ([1]; oral dose 0.5 mg/kg) was 14.4% and the “% Inhi-bition” value ([1]; oral dose 2.5 mg/kg) was 47.4%. For the same compound, the therapeutic ratio [2] was 41.0, the TD50 at 4 h [3] was 30.8 mg/kg and the “Proportion of rats with gas-tric erosions” value (from here on “Proportion of rats”) ([4]; oral dose 3.7 mg/kg) was 0/8. For the same compound, the “Proportion of rats” value ([4]; oral dose 11.2 mg/kg) was 1/8 and the “Proportion of rats” value ([4]; oral dose 33.6 mg/kg) was 4/8.

Source: patent EP0091181A2, “Aroyl pyrrolizine compounds, process for their preparation and pharmaceutical compositions containing them” (BEECHAM GROUP PLC, priority 1982, dated 1983)
